Laboratory results: US20260102460A1, “NOVEL COMBINATIONS OF ANTIBIOTICS AND NON-ANTIBIOTIC DRUGS EFFECTIVE IN VIVO AGAINST GRAM-POSITIVE BACTERIA, IN PARTICULAR METHICILLIN-RESISTANT S. AUREUS (MRSA)” (EUROPEAN MOLECULAR BIOLOGY LABORATORY, priority 2022, published 2026)
Entries after “also recorded” stand apart in the source; their conditions may differ.

How the values were obtained:
[1] = system: S. aureus DSM 20231; assay: Adjuvant (extended non-antibiotic) combination screen; type: cell-based, Staphylococcus aureus; details: S. aureus DSM 20231; original and extended non-antibiotic screen (FIG. 4d); 4×4 dose matrix
Protocol: (§1) MICs were tested in all strains for the main screen. Drugs were two-fold serially diluted in 11 concentrations, and 32 no-drug control wells were included in each plate. Experiments were conducted in 384-well plates (ref. 781271 by Greiner BioOne), with a total volume of 30 μl for S. aureus and B. subtilis and 55 μl for S. pneumoniae. Volumes were optimized for each strain to achieve good dynamic range for growth and minimize risk of cross-contamination between wells. Plates were inoculated with a starting optical density at 595 nm (OD595 nm) of 0.01 from an overnight culture. All liquid handling was performed using a Biomek FX liquid handler (Beckman Coulter). Plates were sealed with breathable membranes and incubated at 37° C. OD595 nm was measured every 30 minutes for 14 hours. The MIC was considered as the first concentration at which growth was inhibited. Experiments were conducted in biological duplicates. For the adjuvant screen, antibiotics were tested in S. aureus DSM 20231 at the same concentrations as for the main screen. Non-antibiotics concentrations were selected to fall within therapeutic ranges.
(§2) 62 drugs, hereafter designated as recipients, were arrayed in 384-well plates (ref. 781271 by Greiner BioOne) in three two-fold serial dilutions and two technical replicates. Concentrations were selected according to MICs, with the highest concentration corresponding to the MIC, and the intermediate and lowest concentration corresponding to ½ and ¼ MIC, respectively. Plates were kept frozen and defrosted upon each experimental run, when the same 62 drugs and in the same three concentrations were added as donor drugs (one drug at one concentration for each recipient plate). A few drugs were screened only as donors: the combinations co-amoxiclav and cotrimoxazole in B. subtilis and S. aureus DSM 20231; co-amoxiclav, clavulanic acid, pseudomonic acid and cefuroxime in S. aureus Newman. All donor drugs were tested in two biological replicates. Control wells were included in each plate (six no-drug wells, three plain medium wells and three wells containing only the donor drug). After the addition of donor drugs, plates were inoculated with cells. Handling, inoculation, growth conditions, plate incubation and OD595 nm measurements were performed as for the MIC determination.
For the adjuvant screen, 44 non-antibiotic drugs were tested against the same recipient drugs of the main screen for S. aureus DSM 20231.
The inventors selected 44 drugs to include pharmaceuticals that can be co-administered with antibiotics in S. aureus infections or non-antibiotics with previously reported antibacterial activity against S. aureus. […] Interactions were scored and benchmarked as for the main screen (Methods).

[2] = system: S. aureus (two strains); assay: High-throughput screen of drug combinations (4×4 broth microdilution checkerboard, Bliss scores); type: cell-based, Staphylococcus aureus; details: for drug-drug interaction (synergy / antagonism, Bliss model): S. aureus Newman and DSM 20231, fitness from OD595nm at 8 h, synergy = first quartile of Bliss scores <−0.1, antagonism = third quartile >0.1, FDR <0.05
Protocol: as §1, §2

[3] = system: multi-drug resistant E. coli isolates; details: vanillin paired with spectinomycin; Gram-negative pathogenic and multi-drug resistant E. coli isolates; cited from earlier work
[4] = system: S. aureus Newman dltABCD and tagG IPTG-inducible knockdown mutants; assay: Gentamicin and nisin MIC in dltABCD and tagG knockdown mutants; type: cell-based, Staphylococcus aureus; details: dltABCD operon and tagG knockdown, 500 μM IPTG, versus control strain MM76
Description: A two-plasmid CRISPR interference system was used to knock down gene expression of selected genes in S. aureus Newman. In these strains, dcas is expressed from an IPTG-inducible promoter on plasmid pLOW, while sgRNAs are expressed from a constitute promoter on a plasmid derived from pCG248. The sgRNA-target sequences were […] (SEQ ID NO. 1) for dltABCD and […] (SEQ ID NO. 2) for tagG, and […] (SEQ ID NO. 3) for the non-target control MM76.
For gentamicin and nisin MIC measurements, dltABCD and tagG IPTG-inducible knockdown mutants (Methods) were grown in two-fold dilutions of nisin and gentamicin, in presence of erythromycin (5 μg/ml) and chloramphenicol (10 μg/ml) for plasmid maintenance. IPTG (500 μM) was used to achieve maximal knockdown of the gene targeted. The parent S. aureus Newman and the control strain MM76 (Methods) were included in all experiments, and experiments were conducted in four biological replicates, in 384-well plates (ref. 781271 by Greiner BioOne). For each plate, the inventors identified the time point where the control strain MM76 (in presence of erythromycin, chloramphenicol and IPTG at the above-mentioned concentrations) reached plateau, defined as the first time point before no increase was detected in log 10 (OD595 nm) values of two consecutive time points. […]

[5] = system: MDR S. aureus isolates; details: Mueller-Hinton broth (MHB), 22 h; cited from earlier work

CC(=O)Oc1ccccc1C(=O)O [acetylsalicylic acid]
interactions between non-antibiotic drug and antibiotics (synergy / antagonism, Bliss model) [1]: synergy with cefuroxime; also recorded: antagonisms with ciprofloxacin, oxacillin and azithromycin

O=C(O)[C@H]1/C(=C/CO)O[C@@H]2CC(=O)N21 [clavulanic acid]
drug-drug interaction (synergy / antagonism, Bliss model) [2]: a number of synergies with other drugs

CCN(CC)CCOc1ccc(C(=C(Cl)c2ccccc2)c2ccccc2)cc1 [clomifene]
interactions between non-antibiotic drug and antibiotics (synergy / antagonism, Bliss model) [1]: synergies with cell-wall acting drugs; also recorded: antagonism with streptomycin

C[C@@H]1O[C@@H]1P(=O)(O)O [fosfomycin]
drug-drug interaction (synergy / antagonism, Bliss model) [2]: strongly synergized with a diverse range of protein-synthesis inhibitors (lincosamides, oxazolidinones, streptomycin); also recorded: synergized with almost all classes of translation inhibitors, including macrolides, tetracyclines and spectinomycin

CN(C)C(=O)C(CCN1CCC(O)(c2ccc(Cl)cc2)CC1)(c1ccccc1)c1ccccc1 [loperamide]
drug-drug interaction (synergy / antagonism, Bliss model) [2]: broad antagonism with macrolides | rank by number of interactions with antibiotics ([2]; the inventors' screen): highest number of interactions with antibiotics

COc1cc(Cc2cnc(N)nc2N)cc(OC)c1OC [trimethoprim]
drug-drug interaction (synergy / antagonism, Bliss model) [2]: a number of synergies with other drugs

COc1cc(C=O)ccc1O [vanillin]
inhibitory effect on growth [3]: surprisingly strong inhibitory effect on the growth

gentamicin
change of MIC in CRISPRi knockdown mutants [4]: decrease

nisin
change of MIC in CRISPRi knockdown mutants [4]: decrease

teicoplanin
killing by single drug [5]: complete killing
